# Source: US9284283B2, “Macrocyclic compounds for modulating IL-17” (ENSEMBLE THERAPEUTICS CORPORATION, priority 2012, dated 2016)
# Read-outs that look alike come from different tables or passages of the source.
# What was measured:
# [1] = target: T1, biotinylated human IL-17 (binding to IL17R/Fc) (Homo sapiens, UniProt Q16552); experiment: IL-17 competition ELISA II (captured IL17R/Fc, biotinylated IL-17)
# T1 construct: purchased R&D Systems 317-ILB (IL-17, biotinylated); 177-IR (IL17R/Fc)
# T1 sequence (Q16552 20-155 limits assumed): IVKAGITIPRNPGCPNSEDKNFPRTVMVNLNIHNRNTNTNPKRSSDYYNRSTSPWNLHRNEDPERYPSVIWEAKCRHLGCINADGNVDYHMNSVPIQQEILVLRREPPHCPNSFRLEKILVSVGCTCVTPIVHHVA
# How it was run: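 Anti-human IgG-coated plates captured IL17R/Fc (10 nM), then compound (5-fold dilutions from 1 μM) and biotinylated human IL-17 (20 nM stock) were added for 30 min at room temperature in PBST. Bound IL-17 detected by streptavidin-HRP/TMB at 450 nm. IC50 from 4-parameter logistic fit between no-competitor and blank controls.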
# [2] = tested on: IL-17A induced secretion of IL-6 in primary human RASF cells; experiment: Inhibition of IL17A induced secretion of IL6 in human rheumatoid arthritis synovial fibroblast (RASF) cells; format: cell-based
# Procedure: This assay was used to determine the extent of inhibition of IL-17A induced secretion of IL-6 in primary human rheumatoid synovial fibroblast (RASF) cells by compounds of the invention. IL-17A is known to stimulate IL-6 production in RASF cells.
# Low passage (passage 2-8) Primary human RASF cells (Asterand) were maintained in maintenance medium. Cells were detached from flasks by tryptic digestion and the cell density of the suspension determined. To each well of a 96 well culture plate was added 100 μL of seeding medium containing 50,000 cells/mL and the plate incubated overnight in a humidified 37° C., 5% CO2 incubator. The medium was replaced with fresh assay medium and cells were incubated for additional 5 hours in a humidified 37° C., 5% CO2 incubator prior to stimulation with recombinant human IL-17A (“rhIL-17A”). Prior to addition to cells, rhIL-17A (30 ng/mL) in assay medium was incubated with either DMSO alone, compounds, or anti-IL17 receptor antibody (3 μg/mL) for 1 hour at 37° C. The final concentration of DMSO in all samples was 0.25%. The final concentration of compounds varied from 0.03 μM to 25 μM.
# Immediately before stimulation, cells were washed once with fresh assay medium. Then, 100 μL of the test samples was added in triplicate wells and the plates incubated for 20 hours in a humidified 37° C., 5% CO2 incubator. The assay medium from each well was collected and the IL-6 concentration in cell culture supernatants was determined by ELISA either immediately or after storage at −20° C.
# A water-soluble tetrazolium salt (WST1) viability assay was immediately performed on the cells after the conditioned medium was collected using a WST1 reagent purchased from Roche. The concentration of IL-6 obtained from ELISA was normalized by the WST1 data.
Compound,IC50 [1] [nM],"IC50 ([2]; Homo sapiens, Fibroblast) [nM]",IC50 [2] [nM]
C[C@H]1NC(=O)[C@@H](Cc2ccc(NC(=O)[C@H](Cc3ccccc3Cl)NC(=O)C(F)(F)c3ccc(F)cc3)cc2)NC(=O)CC2(CCCC2)CC(=O)NCCCCCNC1=O [Compound 560],< 100,< 100,
CC1NC(=O)C(Cc2ccc(NC(=O)C(Cc3ccccc3Cl)NC(=O)Cc3ccc(F)cc3)cc2)NC(=O)C2(CCCC2)CCC(=O)NCCCCCNC1=O (stereo not drawn) [Compound 561],< 100,,1000 to 10000
C[C@H]1NC(=O)[C@@H](Cc2ccc(NC(=O)[C@H](Cc3ccccc3Cl)NC(=O)Cc3ccc(N(C)C)cc3)cc2)NC(=O)CC2(CCCC2)CC(=O)N(C)CCN(C)CCN(C)C1=O [Compound 562],< 100,1000 to 10000,
CC1NC(=O)C(Cc2ccc(NC(=O)C(Cc3ccccc3Cl)NC(=O)C(F)(F)c3ccccc3)cc2)NC(=O)CC2(CCCC2)CC(=O)N(C)CCCCCN(C)C1=O (stereo not drawn) [Compound 566],< 100,,100 to 1000
C[C@H]1NC(=O)[C@@H](Cc2ccc(NC(=O)[C@H](Cc3ccccc3Cl)NC(=O)C(F)(F)c3ccccc3)cc2)NC(=O)CC2(CCCC2)CC(=O)N(C)CCOCCN(C)C1=O [Compound 567],< 100,100 to 1000,
O=C1CC2(CCCC2)CC(=O)N[C@H](Cc2ccc(NC(=O)[C@H](Cc3ccccc3Cl)NC(=O)Oc3ccccc3)cc2)C(=O)NCCOCCOCCN1 [Compound 571],< 100,1000 to 10000,
CN1CCOCCOCCNC(=O)[C@@H](Cc2ccc(NC(=O)[C@H](Cc3ccccc3Cl)NC(=O)Cc3ccc(N(C)C)cc3)cc2)NC(=O)CC2(CCCC2)CC1=O [Compound 582],< 100,1000 to 10000,
C[C@H]1NC(=O)[C@@H](Cc2ccc(NC(=O)[C@H](Cc3ccccc3Cl)NC(=O)Cc3ccc(N(C)C)cc3)cc2)NC(=O)CC2(CCCC2)CC(=O)N(C)CCOCCN(C)C1=O [Compound 584],< 100,1000 to 10000,
C[C@H]1NC(=O)[C@@H](Cc2ccc(NC(=O)[C@H](Cc3ccccc3Cl)NC(=O)Cc3ccc(F)cc3)cc2)NC(=O)CC2(CCCC2)NC(=O)CCNC(=O)CCNC1=O [Compound 593],< 100,100 to 1000,
C[C@H]1NC(=O)[C@@H](Cc2ccc(NC(=O)[C@@H](NC(=O)C(F)(F)c3ccccc3)C3CCCCC3)cc2)NC(=O)CC2(CCCC2)CC(=O)N(C)CCCCCN(C)C1=O [Compound 600],< 100,1000 to 10000,
C[C@H]1NC(=O)[C@@H](Cc2ccc(NC(=O)[C@@H](NC(=O)Cc3ccc(N(C)C)cc3)C3CCCCC3)cc2)NC(=O)CC2(CCCC2)CC(=O)N(C)CCCCCN(C)C1=O [Compound 601],< 100,1000 to 10000,
CN1CCCCCN(C)C(=O)[C@@H](CCC(N)=O)NC(=O)[C@@H](Cc2ccc(NC(=O)[C@@H](NC(=O)Cc3ccc(N(C)C)cc3)C3CCCCC3)cc2)NC(=O)CC2(CCCC2)CC1=O [Compound 626],< 100,100 to 1000,
CN1CCCCCN(C)C(=O)[C@@H](Cc2ccncc2)NC(=O)[C@@H](Cc2ccc(NC(=O)[C@H](Cc3ccccc3Cl)NC(=O)C(F)(F)c3ccccc3)cc2)NC(=O)CC2(CCCC2)CC1=O [Compound 627],< 100,100 to 1000,
CC(O)[C@H]1NC(=O)[C@@H](Cc2ccc(NC(=O)[C@H](Cc3ccccc3Cl)NC(=O)C(F)(F)c3ccccc3)cc2)NC(=O)CC2(CCCC2)CC(=O)N(C)CCOCCN(C)C1=O (stereo partly drawn) [Compound 639],< 100,1000 to 10000,
CN1CCCCCN(C)C(=O)[C@@H](CCC(N)=O)NC(=O)[C@@H](Cc2ccc(NC(=O)[C@H](Cc3ccccc3Cl)NC(=O)C(F)(F)c3ccccc3)cc2)NC(=O)CC2(CCCC2)CC1=O [Compound 645],< 100,100 to 1000,
CN1CCCCCN(C)C(=O)[C@@H](CCC(N)=O)NC(=O)[C@@H](Cc2ccc(NC(=O)[C@@H](NC(=O)Cc3cccc(O)c3)C3CCCCC3)cc2)NC(=O)CC2(CCCC2)CC1=O [Compound 646],< 100,1000 to 10000,
CN1CCCCCN(C)C(=O)[C@@H](CCC(N)=O)NC(=O)[C@@H](Cc2ccc(NC(=O)[C@@H](NC(=O)Cc3ccc(CO)cc3)C3CCCCC3)cc2)NC(=O)CC2(CCCC2)CC1=O [Compound 653],< 100,1000 to 10000,
NC(=O)C[C@H]1NC(=O)[C@@H](Cc2ccc(NC(=O)[C@H](Cc3ccccc3Cl)NC(=O)Cc3ccc(CO)cc3)cc2)NC(=O)CC2(CCCC2)CC(=O)N[C@H](C(=O)O)CCCCNC1=O [Compound 656],< 100,< 100,
